The target in this assay is Tyrosine-protein kinase Lck (Bos taurus). The experiment in a line: Ability to inhibit protein-tyrosine kinase activity of p56lck (isolated from bovine thymus) in vitro.
Regarding `COC(=O)c1c(-c2ccc(OC)c(OC)c2)oc2ccccc2c1=O` [methyl 2-(3,4-dimethoxyphenyl)-4-oxo-4H-chromene-3-carboxylate], the IC50 (usually the concentration at which inhibition is half-maximal) was more than 2000 µM.

Compound `COc1cc(OC)cc(-c2oc3ccccc3c(=O)c2C(=O)O)c1` yielded a half-maximal inhibitory concentration (IC50) of more than 2000 µM.

For `O=C(O)c1c(-c2ccc([N+](=O)[O-])cc2)oc2cc(O)cc(=O)c-2c1O`, the half-maximal inhibitory concentration (IC50) was more than 2000 µM.

In the case of `COc1cc(-c2cc(=O)c3ccccc3o2)cc(OC)c1O` [3',5'-dimethoxy-4'-hydroxyflavone], the IC50 was determined as 26 µM.

Take `COC(=O)c1c(-c2ccc(NC(=O)c3cc(OC)c(OC)c(OC)c3)cc2)oc2ccccc2c1=O`: the 50% inhibitory concentration (IC50) is more than 2000 µM.

`COc1ccc2c(=O)c(C(=O)O)c(-c3ccc([N+](=O)[O-])cc3)oc2c1`: the IC50 is more than 2000 µM.

`COC(=O)c1c(-c2ccc([N+](=O)[O-])cc2)oc2ccccc2c1=O` displayed a concentration for half-maximal inhibition (IC50) of more than 2000 µM.

For the compound `COC(=O)CC(=O)c1cc(OC)ccc1O`, the IC50 was more than 2000 µM.

Turning to `Nc1ccc(-c2cc(=O)c3cc(O)ccc3o2)cc1` [2-(4-aminophenyl)-6-hydroxy-4H-chromen-4-one], the concentration for half-maximal inhibition (IC50) stood at 1.2 µM.

`COc1cc(-c2oc3ccccc3c(=O)c2C(=O)O)cc(OC)c1OC` came in with a half-maximal inhibitory concentration (IC50) of more than 2000 µM.

Compound `O=C(O)c1c(-c2ccc(O)cc2)oc2ccccc2c1=O` gave an IC50 of 1600 µM. This lies in the millimolar range.

`COC(=O)c1c(-c2ccc(OCc3ccccc3)cc2)oc2ccccc2c1=O` returned an IC50 of more than 2000 µM.

Compound `COC(=O)c1c(-c2ccc(Br)cc2)oc2ccccc2c1=O` returned a half-maximal inhibitory concentration (IC50) of more than 2000 µM.

Consider `COC(=O)CC(=O)c1ccc(OC)cc1O`, for which it took 1160 µM to reach half-maximal inhibition (IC50).

As to `COC(=O)c1c(-c2ccc(OCc3ccccc3)cc2)oc2ccc(OC)cc2c1=O` [2-(4-Benzyloxy-phenyl)-6-methoxy-4-oxo-4H-chromene-3-carboxylic acid methyl ester], the IC50 was more than 2000 µM.

`COc1ccc2oc(-c3ccc([N+](=O)[O-])cc3)c(C(=O)O)c(=O)c2c1`: the 50% inhibitory concentration (IC50) was more than 2000 µM.

`CCOC(=O)CC(=O)c1ccccc1O` came in with an IC50 of more than 2000 µM.

The compound `O=C(O)c1c(-c2ccc(Br)cc2)oc2ccccc2c1=O` came in with a half-inhibitory concentration (IC50) of more than 2000 µM.

For `COC(=O)c1c(-c2ccc(O)cc2)oc2cc(OC)ccc2c1=O`, the IC50 is more than 2000 µM.

`COC(=O)CC(=O)c1ccccc1O` gave a half-maximal inhibitory concentration (IC50) of more than 2000 µM.

Regarding `COC(=O)c1c(-c2cc(OC)cc(OC)c2)oc2ccccc2c1=O`, the IC50 is more than 2000 µM.

Turning to `O=c1cc(-c2ccc([N+](=O)[O-])cc2)oc2ccc(O)cc12`, the IC50 is more than 2000 µM.

`CCOC(=O)CC(=O)c1c(O)cc(OCc2ccccc2)cc1OCc1ccccc1` registered an IC50 of more than 2000 µM.

As to `COC(=O)c1c(-c2ccc([N+](=O)[O-])cc2)oc2cc(OCc3ccccc3)cc(OCc3ccccc3)c2c1=O`, the IC50 is more than 2000 µM.

Consider `COC(=O)CC(=O)c1ccc(O)c(O)c1O`, for which the 50% inhibitory concentration (IC50) was more than 2000 µM.

`COc1ccc(-c2oc3ccccc3c(=O)c2C(=O)O)cc1OC` [2-(3,4-Dimethoxy-phenyl)-4-oxo-4H-chromene-3-carboxylic acid] returned a half-inhibitory concentration (IC50) of more than 2000 µM.

Compound `COC(=O)c1c(-c2cc(OC)c(OC)c(OC)c2)oc2ccccc2c1=O` had an IC50 of more than 2000 µM.

Take `COc1ccc2c(=O)c(C(=O)O)c(-c3ccc(O)cc3)oc2c1`: the half-maximal inhibitory concentration (IC50) turned out to be 1030 µM.

Regarding `COC(=O)c1c(-c2ccc(OC)cc2)oc2ccccc2c1=O` [methyl 2-(4-methoxyphenyl)-4-oxo-4H-chromene-3-carboxylate], the IC50 is more than 2000 µM.

`COC(=O)c1c(-c2ccc(O)cc2)oc2ccccc2c1=O` came in with a half-maximal inhibitory concentration (IC50) of 439 µM.

The compound `COC(=O)c1c(-c2ccc(NC(C)=O)cc2)oc2ccc(OC)cc2c1=O` showed an IC50 of more than 2000 µM.

In turn, `O=C(O)c1c(-c2ccc([N+](=O)[O-])cc2)oc2ccccc2c1=O` [2-(4-nitrophenyl)-4-oxo-4H-chromene-3-carboxylic acid] registered a 50% inhibitory concentration (IC50) of more than 2000 µM.

Compound `Nc1ccc(-c2cc(=O)c3ccc(O)cc3o2)cc1` [7-Hydroxy-flavone, 6] returned an IC50 of 138 µM.

Take `COc1ccc(-c2oc3ccccc3c(=O)c2C(=O)O)cc1` [2-(4-methoxyphenyl)-4-oxo-4H-chromene-3-carboxylic acid]: the 50% inhibitory concentration (IC50) was more than 2000 µM.

On to `COC(=O)c1c(-c2ccc([N+](=O)[O-])cc2)oc2cc(OC)ccc2c1=O` [methyl 7-methoxy-2-(4-nitrophenyl)-4-oxo-4H-chromene-3-carboxylate], for which the IC50 is more than 2000 µM.

`COC(=O)c1c(-c2ccc(O)cc2)oc2ccc(OC)cc2c1=O` came in with an IC50 of more than 2000 µM.

Take `COC(=O)c1c(-c2ccc(N)cc2)oc2ccccc2c1=O`: the IC50 amounted to 810 µM.

Compound `O=c1cc(-c2ccc([N+](=O)[O-])cc2)oc2cc(O)ccc12` gave an IC50 of more than 2000 µM.
